Source: the NIST ThermoML archive (doi:10.1016/j.jct.2010.03.009)
± gives the expanded uncertainty stated by the source.

Assay: mn = molality of the nth substance listed, in mol/kg
Conditions: 101 kPa, Liquid; for viscosity: Capillary tube (Ostwald / Ubbelohde) method; for mass density: Vibrating tube method

NC(=O)c1ccccc1O [2-hydroxybenzamide] + C[S+](C)[O-]
Conditions	mass density [kg/m3]	viscosity [mPa·s]
293.15 K, m1 = 0.0069	1100.6 ± 0.094	2.276 ± 0.014
293.15 K, m1 = 0.0091	1100.66 ± 0.094	2.279 ± 0.014
293.15 K, m1 = 0.0114	1100.72 ± 0.093	2.282 ± 0.014
293.15 K, m1 = 0.0137	1100.78 ± 0.093	2.285 ± 0.014
293.15 K, m1 = 0.016	1100.83 ± 0.091	2.287 ± 0.014
293.15 K, m1 = 0.0183	1100.86 ± 0.091	2.289 ± 0.014
293.15 K, m1 = 0.0229	1100.92 ± 0.091	2.294 ± 0.014
298.15 K, m1 = 0.0069	1095.59 ± 0.092	2.034 ± 0.013
298.15 K, m1 = 0.0091	1095.64 ± 0.09	2.038 ± 0.013
298.15 K, m1 = 0.0114	1095.68 ± 0.089	2.042 ± 0.013
298.15 K, m1 = 0.0137	1095.71 ± 0.089	2.045 ± 0.013
298.15 K, m1 = 0.016	1095.76 ± 0.089	2.048 ± 0.013
298.15 K, m1 = 0.0183	1095.79 ± 0.088	2.051 ± 0.013
298.15 K, m1 = 0.0229	1095.8 ± 0.088	2.056 ± 0.013
303.15 K, m1 = 0.0069	1090.56 ± 0.088	1.881 ± 0.012
303.15 K, m1 = 0.0091	1090.6 ± 0.088	1.884 ± 0.012
303.15 K, m1 = 0.0114	1090.63 ± 0.087	1.887 ± 0.012
303.15 K, m1 = 0.0137	1090.66 ± 0.087	1.889 ± 0.012
303.15 K, m1 = 0.016	1090.69 ± 0.086	1.892 ± 0.012
303.15 K, m1 = 0.0183	1090.7 ± 0.086	1.894 ± 0.012
303.15 K, m1 = 0.0229	1090.73 ± 0.087	1.899 ± 0.012
308.15 K, m1 = 0.0069	1085.51 ± 0.086	1.732 ± 0.011
308.15 K, m1 = 0.0091	1085.56 ± 0.086	1.737 ± 0.011
308.15 K, m1 = 0.0114	1085.59 ± 0.086	1.742 ± 0.011
308.15 K, m1 = 0.0137	1085.63 ± 0.086	1.747 ± 0.011
308.15 K, m1 = 0.016	1085.66 ± 0.085	1.752 ± 0.011
308.15 K, m1 = 0.0183	1085.69 ± 0.085	1.756 ± 0.011
308.15 K, m1 = 0.0229	1085.72 ± 0.084	1.763 ± 0.011
310.15 K, m1 = 0.0069	1083.5 ± 0.086	1.644 ± 0.011
310.15 K, m1 = 0.0091	1083.55 ± 0.085	1.645 ± 0.011
310.15 K, m1 = 0.0114	1083.58 ± 0.084	1.646 ± 0.011
310.15 K, m1 = 0.0137	1083.6 ± 0.084	1.647 ± 0.011
310.15 K, m1 = 0.016	1083.62 ± 0.084	1.647 ± 0.011
310.15 K, m1 = 0.0183	1083.65 ± 0.084	1.648 ± 0.011
310.15 K, m1 = 0.0229	1083.66 ± 0.084	1.649 ± 0.011
313.15 K, m1 = 0.0069	1080.47 ± 0.084	1.563 ± 0.01
313.15 K, m1 = 0.0091	1080.52 ± 0.084	1.564 ± 0.01
313.15 K, m1 = 0.0114	1080.55 ± 0.083	1.565 ± 0.01
313.15 K, m1 = 0.0137	1080.58 ± 0.083	1.566 ± 0.01
313.15 K, m1 = 0.016	1080.6 ± 0.083	1.567 ± 0.01
313.15 K, m1 = 0.0183	1080.62 ± 0.083	1.567 ± 0.01
313.15 K, m1 = 0.0229	1080.64 ± 0.082	1.569 ± 0.01
